One may read the IC50 as the concentration that inhibits the measured activity by half.

The results in this text go back to BindingDB's records for doi:10.1021/jm00040a004 (Glaxo Group Research, 1994).

Each structure is given as a SMILES string.

The test is described as follows: In vitro kappa-opioid receptor agonist activity in isolated rabbit vas deferens assay.
`O=C(Cc1ccc(Cl)c(Cl)c1)N1CCc2c(O)cccc2C1CN1CCCC1` (stereo not given) displayed an IC50 of 0.11 nM.

For `O=C1CCN(CC2c3ccoc3CCN2C(=O)Cc2ccc(Cl)c(Cl)c2)C1` (stereo not given) [1-{5-[2-(3,4-Dichloro-phenyl)-acetyl]-4,5,6,7-tetrahydro-furo[3,2-c]pyridin-4-ylmethyl}-pyrrolidin-3-one], the IC50 was found to be 6 nM.

`CN(C)CC1c2ccoc2CCN1C(=O)Cc1ccc(Cl)c(Cl)c1` (stereo not given) [2-(3,4-Dichloro-phenyl)-1-(4-dimethylaminomethyl-6,7-dihydro-4H-furo[3,2-c]pyridin-5-yl)-ethanone]: the concentration for half-maximal inhibition (IC50) was 22 nM. Compared with the last compound, the IC50 is about 3.7-fold higher.

For `O=C(Cc1ccc(Cl)c(Cl)c1)N1CCc2occc2C1CN1CCCC1` (stereo not given) [2-(3,4-Dichloro-phenyl)-1-(4-pyrrolidin-1-ylmethyl-6,7-dihydro-4H-furo[3,2-c]pyridin-5-yl)-ethanone], the IC50 stood at 15 nM.

In turn, `O=C(Cc1ccc(Cl)c(Cl)c1)N1CCc2occc2C1CN1CC=CCC1` (stereo not given) [2-(3,4-Dichloro-phenyl)-1-[4-(3,6-dihydro-2H-pyridin-1-ylmethyl)-6,7-dihydro-4H-furo[3,2-c]pyridin-5-yl]-ethanone] gave a concentration for half-maximal inhibition (IC50) of 1.4 nM.

Take `Cc1cc2c(o1)CCN(C(=O)Cc1ccc(Cl)c(Cl)c1)C2CN1CCC(O)C1` (stereo not given) [2-(3,4-Dichloro-phenyl)-1-[4-(3-hydroxy-pyrrolidin-1-ylmethyl)-2-methyl-6,7-dihydro-4H-furo[3,2-c]pyridin-5-yl]-ethanone]: the 50% inhibitory concentration (IC50) was 0.39 nM.

With `O=C(Cc1ccc(Cl)c(Cl)c1)N1CCc2occc2C1CN1CCC(O)C1` (stereo not given) [2-(3,4-Dichloro-phenyl)-1-[4-(3-hydroxy-pyrrolidin-1-ylmethyl)-6,7-dihydro-4H-furo[3,2-c]pyridin-5-yl]-ethanone], the IC50 was found to be 2.7 nM.

On to `O=C(Cc1ccc(Cl)c(Cl)c1)N1CCc2c(O)cccc2C1CN1CCC(O)C1` (stereo not given) [2-(3,4-Dichloro-phenyl)-1-[5-hydroxy-1-(3-hydroxy-pyrrolidin-1-ylmethyl)-3,4-dihydro-1H-isoquinolin-2-yl]-ethanone], for which the IC50 stood at 3.8 nM.

In turn, `O=C(Cc1ccc(Cl)c(Cl)c1)N1CCc2occc2[C@@H]1CN1CC[C@H](O)C1` [2-(3,4-Dichloro-phenyl)-1-[(R)-4-((S)-3-hydroxy-pyrrolidin-1-ylmethyl)-6,7-dihydro-4H-furo[3,2-c]pyridin-5-yl]-ethanone] returned an IC50 of 1.1 nM.

The compound `O=C(Cc1ccc(Cl)c(Cl)c1)N1CCc2occc2[C@H]1CN1CC[C@@H](O)C1` [(RS)-2-(3,4-Dichloro-phenyl)-1-[4-(3-hydroxy-pyrrolidin-1-ylmethyl)-6,7-dihydro-4H-furo[3,2-c]pyridin-5-yl]-ethanone(GR 91272)] had an IC50 of 3.4 nM. Against the preceding compound, the IC50 is about 3.1-fold higher.
